Data published in the supplement of paper PMC11451515.

Tests used:
Details in all cases: 48 h
NOMO1 [1] = experiment: AUC of viability dose-response curve (% viability x log10 dose units); higher = less sensitive
In short: (§1)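 Library compounds in DMSO were applied for 48 h at 37°C at 11 threefold doses (47 μM to 0.79 nM) to medium-adapted leukemia cells in 1536-well plates holding 500 or 1000 cells/well. Luminescence from CellTiter-Glo One was normalised plate by plate against DMSO and cell-free wells. Area under the curve came from trapezoidal integration of a log-logistic fit, after scaling curves that rose above full viability and discarding those that failed quality control. The fit had four parameters and used log10 doses.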

P12-Ichikawa [2] = experiment: as above
In short: as §1

SEM cells [3] = experiment: as above
In short: as §1

NOMO1 [4] = experiment: cell viability relative to DMSO control; higher = less cytotoxic
In short: (§2)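 Viability is expressed as a percentage of DMSO wells within each plate, and cell-free wells serve as background. Seeding densities in the 1536-well plates (5 μl) were 500 cells/well for NOMO1 or SEM leukemia cells and 1000 cells/well for P12-Ichikawa. Each line was adapted for at least four passages in each medium. Library compounds in DMSO were pin-dosed at 47 μM to 0.79 nM (11 points, threefold), and CellTiter-Glo One luminescence was read after 48 h at 37°C.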

P12-Ichikawa [5] = experiment: as above
In short: as §2

SEM cells [6] = experiment: as above
In short: as §2

CCc1ccc(OCc2ccccc2C(=O)Nc2ccc3nc(C)cc(N)c3c2)cc1
AUC of viability dose-response curve
Details | NOMO1 [1] | P12-Ichikawa [2] | SEM cells [3]
HPLM + 10% dialyzed FBS | 368 | 409 | 377
RPMI 5 mM glucose + 10% FBS | 409 | 423 | 416
RPMI 5 mM glucose + 10% dialyzed FBS | 407 | 426 | 417

cell viability [%]
Details | NOMO1 [4] | P12-Ichikawa [5] | SEM cells [6]
HPLM + 10% dialyzed FBS, 0.000781 µM | 92.1 | 95.7 | 75.2
HPLM + 10% dialyzed FBS, 0.00234 µM | 107 | 107 | 102
HPLM + 10% dialyzed FBS, 0.00702 µM | 105 | 110 | 98.9
HPLM + 10% dialyzed FBS, 0.0211 µM | 117 | 114 | 90.2
HPLM + 10% dialyzed FBS, 0.0632 µM | 115 | 118 | 104
HPLM + 10% dialyzed FBS, 0.19 µM | 118 | 116 | 117
HPLM + 10% dialyzed FBS, 0.569 µM | 127 | 113 | 110
HPLM + 10% dialyzed FBS, 1.71 µM | 114 | 121 | 109
HPLM + 10% dialyzed FBS, 5.12 µM | 15.3 | 110 | 26.6
HPLM + 10% dialyzed FBS, 15.4 µM | 6.13 | 6.84 | 11.3
HPLM + 10% dialyzed FBS, 46.1 µM | 4.55 | 4.54 | 8.33
RPMI 5 mM glucose + 10% FBS, 0.000781 µM | 103 | 88.2 | 98.5
RPMI 5 mM glucose + 10% FBS, 0.00234 µM | 108 | 107 | 102
RPMI 5 mM glucose + 10% FBS, 0.00702 µM | 105 | 112 | 98.9
RPMI 5 mM glucose + 10% FBS, 0.0211 µM | 108 | 113 | 99.3
RPMI 5 mM glucose + 10% FBS, 0.0632 µM | 110 | 108 | 112
RPMI 5 mM glucose + 10% FBS, 0.19 µM | 116 | 114 | 111
RPMI 5 mM glucose + 10% FBS, 0.569 µM | 112 | 118 | 122
RPMI 5 mM glucose + 10% FBS, 1.71 µM | 113 | 123 | 116
RPMI 5 mM glucose + 10% FBS, 5.12 µM | 112 | 108 | 109
RPMI 5 mM glucose + 10% FBS, 15.4 µM | 7.05 | 41.3 | 20.7
RPMI 5 mM glucose + 10% FBS, 46.1 µM | 4.22 | 4.15 | 7.66
RPMI 5 mM glucose + 10% dialyzed FBS, 0.000781 µM | 109 | 89.3 | 94.4
RPMI 5 mM glucose + 10% dialyzed FBS, 0.00234 µM | 108 | 103 | 107
RPMI 5 mM glucose + 10% dialyzed FBS, 0.00702 µM | 116 | 108 | 91.4
RPMI 5 mM glucose + 10% dialyzed FBS, 0.0211 µM | 117 | 111 | 107
RPMI 5 mM glucose + 10% dialyzed FBS, 0.0632 µM | 116 | 104 | 103
RPMI 5 mM glucose + 10% dialyzed FBS, 0.19 µM | 130 | 110 | 114
RPMI 5 mM glucose + 10% dialyzed FBS, 0.569 µM | 124 | 112 | 111
RPMI 5 mM glucose + 10% dialyzed FBS, 1.71 µM | 115 | 121 | 102
RPMI 5 mM glucose + 10% dialyzed FBS, 5.12 µM | 111 | 103 | 111
RPMI 5 mM glucose + 10% dialyzed FBS, 15.4 µM | 6.5 | 47.5 | 22.1
RPMI 5 mM glucose + 10% dialyzed FBS, 46.1 µM | 4.65 | 4.84 | 7.91

O=C(c1cncc(Br)c1)N1CCC(N2CCCC2)CC1
AUC of viability dose-response curve
Details | NOMO1 [1] | P12-Ichikawa [2] | SEM cells [3]
HPLM + 10% dialyzed FBS | 438 | 463 | 469
RPMI 5 mM glucose + 10% FBS | 450 | 463 | 464
RPMI 5 mM glucose + 10% dialyzed FBS | 450 | 459 | 463

cell viability [%]
Details | NOMO1 [4] | P12-Ichikawa [5] | SEM cells [6]
HPLM + 10% dialyzed FBS, 0.000781 µM | 97.9 | 107 | 100
HPLM + 10% dialyzed FBS, 0.00234 µM | 122 | 97.4 | 118
HPLM + 10% dialyzed FBS, 0.00702 µM | 124 | 106 | 107
HPLM + 10% dialyzed FBS, 0.0211 µM | 110 | 103 | 106
HPLM + 10% dialyzed FBS, 0.0632 µM | 103 | 105 | 115
HPLM + 10% dialyzed FBS, 0.19 µM | 105 | 99.9 | 106
HPLM + 10% dialyzed FBS, 0.569 µM | 97.1 | 100 | 106
HPLM + 10% dialyzed FBS, 1.71 µM | 105 | 101 | 107
HPLM + 10% dialyzed FBS, 5.12 µM | 103 | 100 | 114
HPLM + 10% dialyzed FBS, 15.4 µM | 92.2 | 95.1 | 99.7
HPLM + 10% dialyzed FBS, 46.1 µM | 85.3 | 89.9 | 88.5
RPMI 5 mM glucose + 10% FBS, 0.000781 µM | 93.5 | 93.6 | 98.4
RPMI 5 mM glucose + 10% FBS, 0.00234 µM | 95.9 | 99.7 | 106
RPMI 5 mM glucose + 10% FBS, 0.00702 µM | 110 | 100 | 107
RPMI 5 mM glucose + 10% FBS, 0.0211 µM | 90.6 | 95.9 | 110
RPMI 5 mM glucose + 10% FBS, 0.0632 µM | 91.4 | 98.2 | 105
RPMI 5 mM glucose + 10% FBS, 0.19 µM | 96.5 | 96.7 | 114
RPMI 5 mM glucose + 10% FBS, 0.569 µM | 102 | 100 | 117
RPMI 5 mM glucose + 10% FBS, 1.71 µM | 93.1 | 94 | 108
RPMI 5 mM glucose + 10% FBS, 5.12 µM | 94.6 | 103 | 117
RPMI 5 mM glucose + 10% FBS, 15.4 µM | 85.4 | 92.5 | 95.1
RPMI 5 mM glucose + 10% FBS, 46.1 µM | 84.4 | 90.3 | 77.2
RPMI 5 mM glucose + 10% dialyzed FBS, 0.000781 µM | 112 | 95.9 | 110
RPMI 5 mM glucose + 10% dialyzed FBS, 0.00234 µM | 105 | 102 | 95
RPMI 5 mM glucose + 10% dialyzed FBS, 0.00702 µM | 106 | 99.6 | 95
RPMI 5 mM glucose + 10% dialyzed FBS, 0.0211 µM | 106 | 99.6 | 105
RPMI 5 mM glucose + 10% dialyzed FBS, 0.0632 µM | 105 | 95.2 | 99
RPMI 5 mM glucose + 10% dialyzed FBS, 0.19 µM | 103 | 95.1 | 112
RPMI 5 mM glucose + 10% dialyzed FBS, 0.569 µM | 100 | 96.7 | 102
RPMI 5 mM glucose + 10% dialyzed FBS, 1.71 µM | 100 | 100 | 98.7
RPMI 5 mM glucose + 10% dialyzed FBS, 5.12 µM | 98.7 | 92 | 99.1
RPMI 5 mM glucose + 10% dialyzed FBS, 15.4 µM | 98.7 | 87.1 | 91.2
RPMI 5 mM glucose + 10% dialyzed FBS, 46.1 µM | 95.9 | 92 | 71.2
